The text below walks through data of US5767291A, “Phenyl heterocycles as cox-2 inhibitors” (Merck Frosst Canada, Inc., priority 1996, dated 1998).

For series [1], the target named is T1, cyclooxygenase-2 (COX-2) (Homo sapiens, UniProt P35354).
T1 construct: human osteosarcoma 143 cells (which specifically express cyclooxygenase-2); endogenous in cells; host or cells: human osteosarcoma 143 cells (whole cells, and microsomes prepared from them)
T1 sequence (P35354 18-604): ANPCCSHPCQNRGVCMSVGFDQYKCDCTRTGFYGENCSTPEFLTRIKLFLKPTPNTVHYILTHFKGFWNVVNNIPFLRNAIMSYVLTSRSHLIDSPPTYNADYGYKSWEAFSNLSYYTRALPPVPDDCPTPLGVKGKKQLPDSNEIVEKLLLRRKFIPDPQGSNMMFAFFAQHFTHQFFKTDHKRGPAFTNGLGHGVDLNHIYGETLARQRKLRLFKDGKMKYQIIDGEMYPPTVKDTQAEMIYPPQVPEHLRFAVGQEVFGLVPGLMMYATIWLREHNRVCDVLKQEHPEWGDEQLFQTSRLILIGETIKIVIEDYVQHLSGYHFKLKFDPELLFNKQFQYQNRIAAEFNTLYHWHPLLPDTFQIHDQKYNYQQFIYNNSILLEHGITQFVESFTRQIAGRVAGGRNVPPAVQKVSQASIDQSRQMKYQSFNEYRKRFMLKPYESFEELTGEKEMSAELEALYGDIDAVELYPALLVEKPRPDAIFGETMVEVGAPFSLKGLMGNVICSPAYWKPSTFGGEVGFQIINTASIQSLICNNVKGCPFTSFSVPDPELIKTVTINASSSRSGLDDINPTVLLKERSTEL
In words: Microsomal cyclooxygenase assay, COX-2 (PGE2 synthesis, microsomes of human osteosarcoma 143 cells). Type of series: biochemical. Particulars: for inhibition at 0.1 µM: 100 nM. The method, then:
(§1) Compounds were tested as inhibitors of cyclooxygenase activity in whole cell and microsomal cyclooxygenase assays. Both of these assays measured prostaglandin E2 (PGE2) synthesis in response to arachidonic acid, using a radioimmunoassay. Cells used for whole cell assays, and from which microsomes were prepared for microsomal assays, were human osteosarcoma 143 cells (which specifically express cyclooxygenase-2) and human U-937 cells (which specifically express cyclooxygenase-1). In these assays, 100% activity is defined as the difference between prostaglandin E2 synthesis in the absence and presence of arachidonate addition.

Another series has as its target T2, cyclooxygenase-1 (COX-1) (Homo sapiens, UniProt P23219).
T2 construct: human U-937 cells (which specifically express cyclooxygenase-1); endogenous in cells; host or cells: human U-937 cells (whole cells, and microsomes prepared from them)
In words: Microsomal cyclooxygenase assay, COX-1 (PGE2 synthesis, microsomes of human U-937 cells). Type of series: biochemical. The note with it: for inhibition at 0.1 µM: 100 nM. The method, then: as §1

The target in series [2] is T1, cyclooxygenase-2 (COX-2). As to the kind of experiment: Whole cell cyclooxygenase assay, COX-2 (PGE2 synthesis in response to arachidonic acid, radioimmunoassay), human osteosarcoma 143 cells. Type of series: cell-based. Particulars: read-out: Whole Cells COX-2 % inhib.; for inhibition at 0.01 µM: 10 nM; for inhibition at 0.04 µM: 40 nM. On the procedure: as §1
Setting [3] is: 10 nM, read-out: Microsomes COX-2 % inhib.
[4] abbreviates: 10 nM, read-out: Microsomes COX-1 % inhib.
Where [5] appears, read: read-out: Microsomes COX-2 % inhib.
Where [6] appears, read: read-out: Microsomes COX-1 % inhib.

Read-outs that look alike come from different tables or passages of the source.

T2 sequence (P23219 24-599): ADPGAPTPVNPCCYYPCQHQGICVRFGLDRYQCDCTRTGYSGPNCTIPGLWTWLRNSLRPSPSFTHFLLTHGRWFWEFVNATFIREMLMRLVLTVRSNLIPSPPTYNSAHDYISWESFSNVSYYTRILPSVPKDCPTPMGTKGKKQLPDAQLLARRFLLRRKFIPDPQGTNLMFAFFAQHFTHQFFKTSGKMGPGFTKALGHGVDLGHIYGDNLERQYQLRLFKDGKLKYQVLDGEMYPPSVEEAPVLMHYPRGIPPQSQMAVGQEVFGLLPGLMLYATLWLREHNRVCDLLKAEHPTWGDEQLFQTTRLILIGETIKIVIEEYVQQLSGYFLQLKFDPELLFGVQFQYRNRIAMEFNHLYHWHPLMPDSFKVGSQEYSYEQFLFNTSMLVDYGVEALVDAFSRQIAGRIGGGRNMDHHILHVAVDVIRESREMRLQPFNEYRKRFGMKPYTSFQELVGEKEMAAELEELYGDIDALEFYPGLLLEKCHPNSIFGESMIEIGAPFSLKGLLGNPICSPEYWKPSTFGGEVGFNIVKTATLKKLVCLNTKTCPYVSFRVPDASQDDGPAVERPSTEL

Consider `NS(=O)(=O)c1ccc(-c2ccsc2C2CCCCC2)cc1` [Example 4, 3-(4-(Aminosulfonyl)phenyl)-2-cyclohexylthiophene], for which the inhibition at 0.01 µM on cyclooxygenase-2 (COX-2) [1] (setting [3]) is 47%; at cyclooxygenase-1 (COX-1) (setting [4]) it was 2%.

`CS(=O)(=O)c1ccc(C2=C(c3ccc(F)cc3)C(=O)OC2)cc1` [Example 9, 3-(4-Fluorophenyl)-4-(4-(methylsulfonyl)phenyl)-2-(5H)-furanone]: the inhibition at 0.1 µM at cyclooxygenase-2 (COX-2) [1] (setting [5]) came out at 37%; at cyclooxygenase-2 (COX-2) [2], 83%.

For `CS(=O)(=O)c1ccc(C2=C(c3ccc(F)cc3Cl)C(=O)OC2)cc1` [Example 30, 3-(2-Chloro-4-fluorophenyl)-4-(4-(methylsulfonyl)phenyl)-2-(5H)-furanone], on cyclooxygenase-2 (COX-2) [2] (160 nM), the inhibition at 0.16 µM stood at 30%.

Regarding `COc1ccc(C2=C(c3ccc(S(N)(=O)=O)cc3)COC2=O)cc1Cl` [Example 53, 3-(3-Chloro-4-methoxyphenyl)-4-(4-(aminosulfonyl)phenyl)-2-(2H)-furanone], at cyclooxygenase-2 (COX-2) [2], the inhibition at 0.01 µM came to 54% and the inhibition at 0.04 µM is 96%. The inhibition at 0.16 µM at cyclooxygenase-2 (COX-2) [2] (160 nM) came to 102%.

For `NS(=O)(=O)c1ccc(C2=C(c3ccc(Cl)c(Cl)c3)C(=O)OC2)cc1` [Example 51, 3-(3 4-Dichlorophenyl)-4-(4-(aminosulfonyl)phenyl)-2-(2H)-furanone], the inhibition at 0.005 µM at cyclooxygenase-2 (COX-2) [2] (5 nM) is 49%. The inhibition at 0.02 µM at cyclooxygenase-2 (COX-2) [2] (20 nM) turned out to be 95%. Further, on cyclooxygenase-2 (COX-2) [2], the inhibition at 0.04 µM worked out at 102%.

As for `CS(=O)(=O)c1ccc(C2=C(c3ccc(Br)cc3)C(=O)OC2)cc1` [Example 20, 3-(4-Bromophenyl)-4-(4-(methylsulfonyl)phenyl)-2-(5H)-furanone], on cyclooxygenase-2 (COX-2) [2], the inhibition at 0.01 µM amounted to 70% and the inhibition at 0.04 µM was determined as 91%.

Regarding `CS(=O)(=O)c1ccc(C2=C(c3ccc(Cl)cc3)C(=O)OC2)cc1` [Example 21, 3-(4-Chlorophenyl)-4-(4-(methylsulfonyl)phenyl)-2-(5H)-furanone], at cyclooxygenase-2 (COX-2) [2], the inhibition at 0.01 µM is 50% and the inhibition at 0.04 µM amounted to 94%.

As to `CS(=O)(=O)c1ccc(C2=C(c3ccc(Cl)cc3F)C(=O)OC2)cc1` [Example 27, 3-(4-Chloro-2-fluorophenyl)-4-(4-(methylsulfonyl)phenyl)-2-(5H)-furanone], the inhibition at 0.02 µM at cyclooxygenase-2 (COX-2) [2] (20 nM) was 38%. For the same compound, the inhibition at 0.16 µM at cyclooxygenase-2 (COX-2) [2] (160 nM) turned out to be 97%.

Turning to `CS(=O)(=O)c1ccc(C2=C(c3ccccc3)C(=O)OC2)cc1` [Example 23, 3-(Phenyl)-4-(4-(methylsulfonyl)phenyl)-2-(5H)-furanone], on cyclooxygenase-2 (COX-2) [2], the inhibition at 0.02 µM came to 50% and the inhibition at 0.16 µM is 88%.

Take `NS(=O)(=O)c1ccc(C2=C(c3ccc(F)cc3)C(=O)OC2)cc1` [Example 10, 3-(4-Fluorophenyl)-4-(4-(aminosulfonyl)phenyl)-2-(2H)-furanone]: the inhibition at 0.1 µM on cyclooxygenase-2 (COX-2) [1] (setting [5]) is 71%; on cyclooxygenase-1 (COX-1) (setting [6]), 12%; on cyclooxygenase-2 (COX-2) [2] (100 nM), 95%.

On to `CS(=O)(=O)c1ccc(C2=C(c3ccc(Br)c(Br)c3)C(=O)OC2)cc1` [Example 45, 3-(3,4-Dibromophenyl)-4-(4-(methylsulfonyl)phenyl)-2-(5H)-furanone], for which, on cyclooxygenase-2 (COX-2) [2], the inhibition at 0.01 µM was found to be 16% and the inhibition at 0.04 µM was determined as 61%. For the same compound, the inhibition at 0.16 µM at cyclooxygenase-2 (COX-2) [2] (160 nM) came to 101%.

For `NS(=O)(=O)c1ccc(-c2sccc2-c2ccc(F)cc2)cc1` [Example 13, 2-((4-aminosulfonyl)phenyl)-3-(4-fluorophenyl)thiophene], the “Microsomes COX-2 % inhib.” value at cyclooxygenase-2 (COX-2) [1] (10 nM, 0.01 µM) amounted to 58%. The inhibition at 0.01 µM at cyclooxygenase-2 (COX-2) [1] (setting [3]) stood at 52%; on cyclooxygenase-1 (COX-1) (setting [4]), 7%; on cyclooxygenase-2 (COX-2) [2], 41%. For the same compound, on cyclooxygenase-1 (COX-1) (10 nM, 0.01 µM), the “Microsomes COX-1 % inhib.” value is 10%. Further, at cyclooxygenase-2 (COX-2) [2] (100 nM), the inhibition at 0.1 µM worked out at 84%.

Consider `CSc1ccc(C2=C(c3ccc(S(C)(=O)=O)cc3)COC2=O)cc1` [Example 40, 3-(4-Methylthiophenyl)-4-(4-(methylsulfonyl)phenyl)-2-(5H)-furanone], for which, at cyclooxygenase-2 (COX-2) [2], the inhibition at 0.01 µM was 43% and the inhibition at 0.04 µM was determined as 72%. For the same compound, the inhibition at 0.16 µM on cyclooxygenase-2 (COX-2) [2] (160 nM) is 96%.

Consider `CS(=O)(=O)c1ccc(C2=C(c3ccc(Cl)cc3Cl)C(=O)OC2)cc1` [Example 31, 3-(2,4-Dichlorophenyl)-4-(4-(methylsulfonyl)phenyl)-2-(5H)-furanone], for which the inhibition at 0.02 µM at cyclooxygenase-2 (COX-2) [2] (20 nM) turned out to be 49%. In addition, the inhibition at 0.16 µM at cyclooxygenase-2 (COX-2) [2] (160 nM) came out at 87%.

Consider `CC(C)c1cc(-c2ccc(S(N)(=O)=O)cc2)c(-c2ccc(F)cc2)s1` [Example 3, 3-(4-(Aminosulfonyl)phenyl)-2-(4-fluorophenyl)-5-(2-propyl)thiophene], for which the inhibition at 0.01 µM at cyclooxygenase-2 (COX-2) [1] (setting [3]) turned out to be 33%; on cyclooxygenase-1 (COX-1) (setting [4]), 19%; at cyclooxygenase-2 (COX-2) [2], 42%. Moreover, the inhibition at 0.1 µM amounted to 76% on cyclooxygenase-2 (COX-2) [1] (setting [5]), 12% on cyclooxygenase-1 (COX-1) (setting [6]) and 100% at cyclooxygenase-2 (COX-2) [2] (100 nM).

As to `CC1(C)OC(=O)C(c2ccc(F)cc2)=C1c1ccc(S(C)(=O)=O)cc1` [Example 12, 5,5-Dimethyl-3-(4-fluorophenyl)-4-(4-methylsulfonylphenyl)-2-(5H)-furanone], the inhibition at 0.1 µM on cyclooxygenase-2 (COX-2) [2] (100 nM) was found to be 54%.

Consider `CS(=O)(=O)c1ccc(-c2cnsc2-c2ccc(F)cc2)cc1` [Example 8, 4-(4-(Methylsulfonyl)phenyl)-5-(4-fluorophenyl)-isothiazole], for which the inhibition at 0.01 µM on cyclooxygenase-2 (COX-2) [2] was found to be 41%. For the same compound, the inhibition at 0.1 µM on cyclooxygenase-2 (COX-2) [2] (100 nM) stood at 89%.

For `CS(=O)(=O)c1ccc(C2=C(c3c(F)cccc3Cl)C(=O)OC2)cc1` [Example 42, 3-(2-Chloro-6-fluorophenyl)-4-(4-(methylsulfonyl)phenyl)-2-(5H)-furanone], on cyclooxygenase-2 (COX-2) [2] (20 nM), the inhibition at 0.02 µM came out at 10%. Moreover, on cyclooxygenase-2 (COX-2) [2] (160 nM), the inhibition at 0.16 µM worked out at 44%.

As to `CS(=O)(=O)c1ccc(C2=C(c3c(Cl)cccc3Cl)C(=O)OC2)cc1` [Example 33, 3-(2,6-Dichlorophenyl)-4-(4-(methylsulfonyl)phenyl)-2-(5H)-furanone], the inhibition at 0.16 µM at cyclooxygenase-2 (COX-2) [2] (160 nM) worked out at 6%.

With `CS(=O)(=O)c1ccc(-c2cocc2-c2ccc(F)cc2)cc1` [Example 11, 3-(4-Fluorophenyl)-4-(4-(methylsulfonyl)phenyl)furan], the inhibition at 0.1 µM on cyclooxygenase-2 (COX-2) [1] (setting [5]) was found to be 46%; at cyclooxygenase-1 (COX-1) (setting [6]) it was 7%; at cyclooxygenase-2 (COX-2) [2] (100 nM) it was 39%.

As to `CS(=O)(=O)c1ccc(C2=C(c3ccc(F)c(Cl)c3)C(=O)OC2)cc1` [Example 34, 3-(3-Chloro-4-fluorophenyl)-4-(4-(methylsulfonyl)phenyl)-2-(5H)-furanone], on cyclooxygenase-2 (COX-2) [2], the inhibition at 0.01 µM amounted to 30% and the inhibition at 0.04 µM worked out at 80%. Further, the inhibition at 0.16 µM on cyclooxygenase-2 (COX-2) [2] (160 nM) is 102%.

As to `COc1ccc(C2=C(c3ccc(S(N)(=O)=O)cc3)COC2=O)cc1Br` [Example 54, 3-(3-Bromo-4-methoxyphenyl)-4-(4-(aminosulfonyl)phenyl)-2-(2H)-furanone], the inhibition at 0.01 µM at cyclooxygenase-2 (COX-2) [2] worked out at 81%. The inhibition at 0.08 µM at cyclooxygenase-2 (COX-2) [2] (80 nM) came to 91%. Further, on cyclooxygenase-2 (COX-2) [2] (160 nM), the inhibition at 0.16 µM is 99%.

In the case of `O=C(NS(=O)(=O)c1ccc(-c2ccsc2-c2ccc(F)cc2)cc1)C(F)(F)F` [Example 14, 3-(4-(Trifluoroacetylaminosulfonyl)phenyl)-2-(4-fluorophenyl)thiophene], the inhibition at 0.01 µM at cyclooxygenase-2 (COX-2) [1] (setting [3]) stood at 45%; at cyclooxygenase-1 (COX-1) (setting [4]), 29%; at cyclooxygenase-2 (COX-2) [2], 73%. Besides, the inhibition at 0.1 µM on cyclooxygenase-2 (COX-2) [1] (setting [5]) is 63%; on cyclooxygenase-1 (COX-1) (setting [6]) it was 0%; at cyclooxygenase-2 (COX-2) [2] (100 nM) it was 89%. The inhibition at 1 µM at cyclooxygenase-2 (COX-2) [1] (1000 nM, read-out: Microsomes COX-2 % inhib.) came out at 69%; at cyclooxygenase-1 (COX-1) (1000 nM, read-out: Microsomes COX-1 % inhib.) it was 0%; on cyclooxygenase-2 (COX-2) [2] (1000 nM), 101%.

`Cc1nc(-c2ccc(F)cc2)c(-c2ccc(S(C)(=O)=O)cc2)s1` [Example 6, 4-(4-Fluorophenyl)-2-methyl-5-(4-(methylsulfonyl)phenyl)thiazole]: the inhibition at 0.1 µM on cyclooxygenase-2 (COX-2) [1] (setting [5]) was found to be 19%; at cyclooxygenase-1 (COX-1) (setting [6]), 16%; at cyclooxygenase-2 (COX-2) [2] (100 nM), 78%.

Turning to `COc1ccc(C2=C(c3ccc(S(C)(=O)=O)cc3)COC2=O)cc1Cl` [Example 37, 3-(3-Chloro-4-methoxyphenyl)-4-(4-(methylsulfonyl)phenyl)-2-(5H)-furanone], at cyclooxygenase-2 (COX-2) [2], the inhibition at 0.01 µM is 53% and the inhibition at 0.04 µM is 82%. Besides, at cyclooxygenase-2 (COX-2) [2] (160 nM), the inhibition at 0.16 µM was found to be 93%.
